Assay results as given in ChEMBL document CHEMBL1125471, “Isopropyl and phenyl esters of 3 beta-(4-substituted phenyl)tropan-2 beta-carboxylic acids. Potent and selective compounds for the dopamine transporter” (J Med Chem, 1992).

Experiments:
[1] = molecular target: Sodium-dependent serotonin transporter (Rattus norvegicus) (UniProt P31652); assay: Ratio of IC50(5-HT) to the IC50(DA)
[2] = molecular target: T1, Norepinephrine transporter (Rattus norvegicus, UniProt Q9WTR4); assay: Inhibition of [3H]mazindol binding to Norepinephrine transporter
T1 sequence (Q9WTR4 whole entry): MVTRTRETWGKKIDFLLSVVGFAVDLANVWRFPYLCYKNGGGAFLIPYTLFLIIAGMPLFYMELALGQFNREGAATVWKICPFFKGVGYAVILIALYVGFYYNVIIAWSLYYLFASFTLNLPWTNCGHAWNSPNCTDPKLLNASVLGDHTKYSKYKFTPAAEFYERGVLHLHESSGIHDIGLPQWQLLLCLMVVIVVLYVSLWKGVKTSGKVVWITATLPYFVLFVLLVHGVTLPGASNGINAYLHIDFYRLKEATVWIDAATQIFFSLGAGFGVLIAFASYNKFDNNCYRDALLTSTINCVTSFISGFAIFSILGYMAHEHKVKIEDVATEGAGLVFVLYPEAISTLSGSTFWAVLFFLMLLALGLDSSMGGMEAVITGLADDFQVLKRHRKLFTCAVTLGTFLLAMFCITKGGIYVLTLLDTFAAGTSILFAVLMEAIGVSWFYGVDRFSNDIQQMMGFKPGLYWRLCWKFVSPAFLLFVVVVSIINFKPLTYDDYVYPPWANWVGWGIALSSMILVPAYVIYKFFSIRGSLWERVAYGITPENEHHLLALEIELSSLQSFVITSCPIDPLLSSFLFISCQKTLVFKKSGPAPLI

[3] = molecular target: T2, Sodium-dependent dopamine transporter (Rattus norvegicus, UniProt P23977); assay: Inhibition of [3H]WIN-35428l binding to Dopamine transporter
T2 sequence (P23977 whole entry): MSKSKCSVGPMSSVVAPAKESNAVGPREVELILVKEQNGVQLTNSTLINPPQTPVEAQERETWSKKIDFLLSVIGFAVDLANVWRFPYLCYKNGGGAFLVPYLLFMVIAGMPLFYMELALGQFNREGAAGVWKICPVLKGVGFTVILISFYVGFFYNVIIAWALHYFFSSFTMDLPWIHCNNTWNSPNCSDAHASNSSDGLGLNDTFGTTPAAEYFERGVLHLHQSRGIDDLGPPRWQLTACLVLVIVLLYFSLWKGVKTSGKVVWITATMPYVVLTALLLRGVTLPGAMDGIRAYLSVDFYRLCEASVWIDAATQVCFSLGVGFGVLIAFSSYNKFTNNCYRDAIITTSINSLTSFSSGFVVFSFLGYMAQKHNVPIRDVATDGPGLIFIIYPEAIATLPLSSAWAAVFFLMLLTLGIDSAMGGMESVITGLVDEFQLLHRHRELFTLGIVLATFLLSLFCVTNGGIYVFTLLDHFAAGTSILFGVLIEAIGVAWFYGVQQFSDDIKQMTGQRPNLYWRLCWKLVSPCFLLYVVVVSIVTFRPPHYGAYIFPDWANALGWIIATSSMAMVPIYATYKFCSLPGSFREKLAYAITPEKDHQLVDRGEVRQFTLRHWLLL

[4] = molecular target: Sodium-dependent serotonin transporter (Rattus norvegicus, UniProt P31652); assay: Inhibition of [3H]paroxetine binding to Serotonin transporter
Sodium-dependent serotonin transporter, sequence (P31652 whole entry): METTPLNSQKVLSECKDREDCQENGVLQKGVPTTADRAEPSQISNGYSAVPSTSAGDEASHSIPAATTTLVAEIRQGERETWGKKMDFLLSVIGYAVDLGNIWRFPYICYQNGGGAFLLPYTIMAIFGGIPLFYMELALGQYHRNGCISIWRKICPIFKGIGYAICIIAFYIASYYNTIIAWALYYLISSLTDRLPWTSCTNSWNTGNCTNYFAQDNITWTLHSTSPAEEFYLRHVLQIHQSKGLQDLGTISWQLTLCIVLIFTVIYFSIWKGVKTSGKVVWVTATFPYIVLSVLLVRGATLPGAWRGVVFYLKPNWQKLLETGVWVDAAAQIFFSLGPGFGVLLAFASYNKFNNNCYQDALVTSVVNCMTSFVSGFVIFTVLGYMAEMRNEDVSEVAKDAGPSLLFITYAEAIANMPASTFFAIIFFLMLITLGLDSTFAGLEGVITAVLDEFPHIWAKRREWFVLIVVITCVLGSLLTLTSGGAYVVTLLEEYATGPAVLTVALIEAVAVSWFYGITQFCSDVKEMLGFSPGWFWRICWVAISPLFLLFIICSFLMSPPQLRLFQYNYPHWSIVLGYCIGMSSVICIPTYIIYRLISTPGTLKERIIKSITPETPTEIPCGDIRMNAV

[5] = molecular target: T2, Sodium-dependent dopamine transporter; assay: Compound was evaluated for the inhibition of [3H]WIN-35428l binding to dopamine transporter
[6] = molecular target: T1, Norepinephrine transporter; assay: Compound was evaluated for the inhibition of [3H]mazindol binding to norepinephrine (NE) transporter

Sodium-dependent serotonin transporter (Rattus norvegicus), sequence (P31652 whole entry): as above

Compound | Ratio [1] | IC50 [2] [µM] | IC50 [3] [µM] | IC50 [4] [µM] | IC50 [5] [µM] | IC50 [6] [µM]
CCOC(=O)[C@@H]1C2CC[C@H](C[C@@H]1OC(=O)c1ccccc1)N2C | 70 | 26.8 | 0.13 | 9.06 | – | –
Cc1ccc([C@H]2C[C@H]3CCC([C@H]2C(=O)Oc2ccccc2)N3C)cc1 | 9070 | 10.8 | 0.00327 | 29.7 | – | –
CN1C2CC[C@@H]1C[C@H](c1ccc(I)cc1)[C@@H]2C(=O)Oc1ccccc1 | 216 | 18.3 | 0.00151 | 0.326 | – | –
CC(C)OC(=O)[C@@H]1C2CC[C@H](C[C@@H]1OC(=O)c1ccccc1)N2C | 122 | 23.5 | – | 25.7 | – | –
CN1C2CC[C@@H]1C[C@H](OC(=O)c1ccccc1)[C@@H]2C(=O)Oc1ccccc1 | 512 | 37.4 | 0.112 | 57.4 | – | –
Cc1ccc([C@H]2C[C@H]3CCC([C@H]2C(=O)OC(C)C)N3C)cc1 | 1210 | 4.3 | 0.00529 | 6.41 | – | –
COC(=O)C1C2CC[C@H](C[C@@H]1c1ccc(Cl)cc1)N2C (some centres undefined) | – | – | – | 0.0445 | – | –
CC(C)OC(=O)[C@@H]1C2CC[C@H](C[C@@H]1c1ccc(Cl)cc1)N2C | 996 | 2.15 | 0.00141 | 1.4 | – | –
CC(C)OC(=O)[C@@H]1C2CC[C@H](C[C@@H]1c1ccc(I)cc1)N2C | 721 | 0.864 | 0.00043 | 0.31 | – | –
CCCOC(=O)[C@@H]1C2CC[C@H](C[C@@H]1OC(=O)c1ccccc1)N2C | – | – | – | 4.13 | 0.191 | 15.8
COC(=O)[C@@H]1C2CC[C@H](C[C@@H]1c1ccc(C)cc1)N2C | – | – | 0.00171 | – | – | –
COC(=O)[C@@H]1C2CC[C@H](C[C@@H]1c1ccccc1)N2C | – | 2.08 | – | – | – | –
CN1C2CC[C@@H]1C[C@H](c1ccc(Cl)cc1)[C@@H]2C(=O)Oc1ccccc1 | 1170 | 4.57 | 0.00199 | 2.34 | – | –
COC(=O)[C@H]1[C@@H](c2ccc(F)cc2)C[C@H]2CC[C@H]1N2C | – | 1.24 | – | 0.759 | – | –
CN1C2CC[C@@H]1C[C@H](OC(=O)c1ccccc1)[C@@H]2C(=O)OCCCc1ccccc1 | – | – | – | 0.374 | – | 25.1
COC(=O)[C@@H]1C2CC[C@H](C[C@@H]1c1ccc(I)cc1)N2C | 3.3 | 0.0346 | 0.00126 | 0.0042 | – | –
